Source: patent US6555091B1, “Polypeptide capable of reacting with antibodies of patients suffering from multiple sclerosis and uses” (Bio Merieux, priority 1997, dated 2003)

System: IgG of CSF from patients suffering from MS
Assay: ELISA of polypeptides, IgG response of CSFs diluted 1/10 (Table 5, FIGS. 7A and 7B)
Type: binding, human
Parameters: key to IgG recognition by CSF: positive (+) if the OD value at 492 nm for a 1/10 dilution of the CSF is greater than the mean values obtained for the CSFs from the ND patients+3 times the standard deviation
Settings: for number of positive (+) CSFs: total line, 15 MS patients, CSF 1/10
Description: FIGS. 7A and 7B represents the IgG response of the polypeptides whose peptide sequence consists of, respectively, SEQ ID NO: 13, SEQ ID NO: 12, SEQ ID NO: 14, SEQ ID NO: 16, SEQ ID NO: 19 and SEQ ID NO: 15, with respect to CSFs diluted 1/10; the results assembled in the appended Table 5 are expressed by the difference in the optical density values obtained for the polypeptide tested and the values obtained for the HIV polypeptide used as control; ND corresponds to patients suffering from a neurological disease other than MS, and MS* corresponds to patients suffering from MS.
Table 5, illustrated in FIGS. 7A and 7B, collates the results on the specific recognition of CSF from patients suffering from MS for 6 polypeptides of the invention, SEQ ID NO: 13, SEQ ID NO: 12, SEQ ID NO: 14, SEQ ID NO: 16, SEQ ID NO: 19 and SEQ ID NO: 15.
For each polypeptide tested, identified in Table 5 by its peptide sequence, the CSFs from patients 1-22 suffering from Ms are determined as positive (+) if the OD value at 492 nm for a 1/10 dilution of the CSF is greater than the mean values obtained for the CSFs from the ND patients+3 times the standard deviation.

Sequence | IgG recognition by CSF (CSF of MS patient 5, 1/10) | IgG recognition by CSF (CSF of MS patient 6, 1/10) | IgG recognition by CSF (CSF of MS patient 7, 1/10) | IgG recognition by CSF (CSF of MS patient 8, 1/10) | IgG recognition by CSF (CSF of MS patient 10, 1/10) | IgG recognition by CSF (CSF of MS patient 18, 1/10) | IgG recognition by CSF (CSF of MS patient 21, 1/10) | IgG recognition by CSF (CSF of MS patient 22, 1/10) | number of positive (+) CSFs | IgG recognition by CSF (CSF of MS patient 1, 1/10) | IgG recognition by CSF (CSF of MS patient 2, 1/10) | IgG recognition by CSF (CSF of MS patient 16, 1/10)
RGTQEWTELWVSFRA (MSRV) [SEQ ID NO: 19] | + | + | + | + | + | + | + | + | 8+ |  |  | 
MPVSRLCIELDWCPP (MSRV) [SEQ ID NO: 12] | + | + | + | + | + | + | + |  | 10+ | + | + | +
